# Structures can show the parent of a compound that is named as a salt.
# Columns and labels:
# [1] = in vivo; cited from earlier work
# MGMT [2] = experiment: RT-PCR gene-fold changes in human GBM cells; type: cell-based
# Description: (§1) Quantification of mRNA by real-time quantitative RT-PCR for HIF-1a, MPG and MGMT. Total RNA from all cell lines with all treatments was purified with an RNeasy Mini Kit (Qiagen), and quantified by spectrophotometry (Nanodrop). cDNA was synthesized using SuperScript IV Reverse Transcriptase Kit (Invitrogen).
# (§2) Target gene mRNA was amplified and measured by Bio-Rad CFX96™ Real Time System. Gene expression was determined using the SYBR Select Master Mix (Applied Biosystems). […] The reaction is characterized by the point during cycling when amplification of PCR products is first detected, rather than the amount of PCR product accumulated after a fixed number of cycles. The higher the starting quantity of the template, the earlier a significant increase in fluorescence is observed. The threshold cycle is defined as the fractional cycle number at which fluorescence passes a fixed threshold above the baseline. Fluorescence data were converted into cycle threshold measurements exported to Microsoft Excel. Glyceraldehyde-3-phosphatase dehydrogenase (GAPDH) mRNA expression levels were used as the quantitative internal control. For precise quantification, the mRNA expression level of each sample was normalized using the expression of the GAPDH gene.
# (§3) All primers were synthesized by Integrated DNA Technologies. The primers used were: […]
# (§4) were used to amplify 603-bp transcripts of MPG [9].
# MPG [3] = experiment: RT-PCR gene-fold changes in human GBM cells; type: cell-based
# Description: as §1, §2, §3, §4
# LN229 cells = experiment: IC50 TMZ sensitivity (50% growth inhibition, cell counts); type: cell-based, human; conditions: TMZ alone
# Description: (§5) Culture Collection (ATCC; Manassas, VA, USA) (U-138—ATCC (CRL-HTB-16) glioblastoma; LN-18—ATCC (CRL-2610) glioblastoma; LN-229—ATCC (CRL-2611) glioblastoma; and T-98G—ATCC—(CRL-1690). U-251 GBM cells were obtained from Sigma-Aldrich (N#09063001 also known before as U-373 MG (ATCC® HTB-17)). G55 cells were obtained from Dr. Michael Sughrue, who was a resident at Univ. of California San Francisco (originally obtained from C. David James (Department of Neurological Surgery, UCSF, CA, USA), who characterized the cells).
# (§6) Cells were cultured in Dulbecco's modified Eagle's medium (DMEM, Gibco BRL, Crand Island, N.Y., USA) supplemented with 10% fetal bovine serum (Gibco) in a standard humidified incubator at 37° C. under 5% CO2.
# (§7) IC50 concentrations—Protocol for TMZ sensitivity determination. […] Briefly, cells were plated at 1×10^4 cells per well in 24-well, flat-bottomed plates and incubated with medium for 24 hrs. The cells were subsequently washed twice with medium and incubated further with fresh medium (control) or medium containing 0.1-1,000 μM of TMZ. Per each plate contained growth medium with +/−TMZ there was a plate with medium containing 1 mM OKN. After exposure to the various concentrations of TMZ for 72 hrs, cells were detached by trypsinization and the numbers counted. The experiments were repeated at least 4 times at each concentration.
# T98 cells = experiment: as above; type: cell-based, human; conditions: TMZ alone
# Description: as §5, §6, §7
# HIF-1α [4] = experiment: ELISA protein level in human GBM cell lysates; type: cell-based
# Description: (§8) ELISA for HIF-1a, MPG and MGMT. Protein expressions were assessed in all six glioma cell lines for all four groups of treatment (cell alone, cells with TMZ, cells with OKN, cells with combined OKN and TMZ). Cells were lysed before assaying. In brief, cells were washed by cold PBS gently, and then detached with trypsin, and collected by centrifugation at 1,000×g for 5 minutes. Then, cells were washed three times in cold PBS, then suspended in fresh lysis buffer. Lysates were centrifuged at 1,500×g for 10 minutes at 2-8° C. to remove cellular debris.
# (§9) The assay is based on the sandwich ELISA principle. Each well of the supplied microtiter plate has been pre-coated with a target specific capture antibody. Standards or samples are added to the wells and the target antigen binds to the capture antibody. Unbound Standard or sample is washed away. A biotin-conjugated detection antibody is then added which binds to the captured antigen. Unbound detection antibody is washed away. An Avidin-Horseradish Peroxidase (HRP) conjugate is then added which binds to the biotin. Unbound Avidin-HRP conjugate is washed away. A TMB substrate is then added which reacts with the HRP enzyme resulting in color development. A sulfuric acid stop solution is added to terminate color development reaction and then the optical density (OD) of the well is measured at a wavelength of 450 nm±2 nm. The OD of an unknown sample can then be compared to an OD standard curve generated using known antigen concentrations in order to determine its antigen concentration.
# (§10) The antigen concentration determined from ELISA was then normalized to the total protein concentration of each cell lysate in order to have comparison between groups. ELISA Kits for N-Methylpurine DNA Glycosylase (MPG) and for Hypoxia Inducible Factor 1 Alpha (HIF1a) were purchased from CLOUD-CLONE CORP.(CCC) and for Human MGMT from LifeSpan Biosciences, Inc.
# MGMT [5] = experiment: ELISA protein level in human GBM cell lysates; type: cell-based
# Description: as §8, §9, §10
# MPG [6] = experiment: ELISA protein level in human GBM cell lysates; type: cell-based
# Description: as §8, §9, §10
# G55 cells = experiment: IC50 TMZ sensitivity (50% growth inhibition, cell counts); type: cell-based; conditions: Homo sapiens, 72 h, TMZ alone
# Description: as §5, §6, §7
# U138 cells = experiment: as above; type: cell-based; conditions: Homo sapiens, TMZ alone, 72 hrs
# Description: as §5, §6, §7
# LN18 cells = experiment: as above; type: cell-based; conditions: Homo sapiens, LN-18, TMZ alone, 72 hrs
# Description: as §5, §6, §7
# U251 cells = experiment: as above; type: cell-based; conditions: Homo sapiens, U-251, TMZ alone, 72 hrs
# Description: as §5, §6, §7
# [7] = patients; cited from earlier work
# HIF-1α [8] = experiment: RT-PCR gene-fold changes in human GBM cells; type: cell-based
# Description: as §1, §2, §3
# [9] = rats; cited from earlier work
# C6 gliomas = conditions: rat C6 glioma, cited from earlier work
# [10] = T98 cells (TMZ-resistant), UT 1.00
# [11] = U251 cells (TMZ-sensitive), UT 1.00
structure (smiles),measurement,setting,value
"CC[C@]1(O)C[C@H]2CN(CCc3c([nH]c4ccccc34)[C@@](C(=O)OC)(c3cc4c(cc3OC)N(C=O)[C@H]3[C@@](O)(C(=O)OC)[C@H](OC(C)=O)[C@]5(CC)C=CCN6CC[C@]43[C@@H]65)C2)C1 [Vincristine, vincaleukoblastine, a 22-oxo-, sulfate (1:1) (salt)]",crossing of the blood brain barrier,[1],does not appear to cross the blood brain barrier
"Cn1nnc2c(C(N)=O)ncn2c1=O [TMZ, Temozolomide, reference compound]",RT-PCR gene-fold change MGMT,"MGMT [2]; LN18 cells (TMZ-resistant), UT 1.06",0.77 fold
same,RT-PCR gene-fold change MGMT,MGMT [2]; [10],1.07 fold
same,RT-PCR gene-fold change MGMT,MGMT [2]; [11],1.32 fold
same,RT-PCR gene-fold change MPG,"MPG [3]; G55 cells (TMZ-resistant), UT 1.06",2.53 fold
same,RT-PCR gene-fold change MPG,"MPG [3]; LN18 cells (TMZ-resistant), UT 1.00",2.95 fold
same,RT-PCR gene-fold change MPG,"MPG [3]; LN229 cells (TMZ-sensitive), UT 1.10",1.22 fold
same,RT-PCR gene-fold change MPG,"MPG [3]; T98 cells (TMZ-resistant), UT 1.10",1.22 fold
same,RT-PCR gene-fold change MPG,"MPG [3]; U138 cells (TMZ-resistant), UT 1.13",7.14 fold
same,RT-PCR gene-fold change MPG,"MPG [3]; U251 cells (TMZ-sensitive), UT 1.10",1.11 fold
same,IC50,"LN229 cells; Homo sapiens, LN-229, 72 h",108 µM
same,IC50,LN229 cells; 72 hrs,~100 µM
same,IC50,"T98 cells; Homo sapiens, T98, 72 h",438 µM
same,IC50,T98 cells; 72 hrs,447 µM
same,ELISA protein level HIF-1α,"HIF-1α [4]; G55 cells, UT 0.14",1.08 ng/mg cell lysate
same,ELISA protein level HIF-1α,"HIF-1α [4]; LN18 cells, UT 0 76",0.83 ng/mg cell lysate
same,ELISA protein level HIF-1α,"HIF-1α [4]; LN229 cells, UT 0.68",0.74 ng/mg cell lysate
same,ELISA protein level HIF-1α,"HIF-1α [4]; T98 cells, UT 0.42",0.77 ng/mg cell lysate
same,ELISA protein level HIF-1α,"HIF-1α [4]; U138 cells, UT 0.40",0.84 ng/mg cell lysate
same,ELISA protein level HIF-1α,"HIF-1α [4]; U251 cells, UT 0.30",1.41 ng/mg cell lysate
same,ELISA protein level MGMT,"MGMT [5]; G55 cells, UT 0.37",1.19 ng/mg cell lysate
same,ELISA protein level MGMT,"MGMT [5]; LN18 cells, UT 1.23",1.28 ng/mg cell lysate
same,ELISA protein level MGMT,"MGMT [5]; LN229 cells, UT 0.67",0.75 ng/mg cell lysate
same,ELISA protein level MGMT,"MGMT [5]; T98 cells, UT 0.62",1.76 ng/mg cell lysate
same,ELISA protein level MGMT,"MGMT [5]; U138 cells, UT 0.77",0.98 ng/mg cell lysate
same,ELISA protein level MGMT,"MGMT [5]; U251 cells, UT 0.92",1.48 ng/mg cell lysate
same,ELISA protein level MPG,"MPG [6]; G55 cells, UT 1.15",1.50 ng/mg cell lysate
same,ELISA protein level MPG,"MPG [6]; LN18 cells, UT 2.18",2.27 ng/mg cell lysate
same,ELISA protein level MPG,"MPG [6]; LN229 cells, UT 2.34",1.93 ng/mg cell lysate
same,ELISA protein level MPG,"MPG [6]; T98 cells, UT 3.04",3.82 ng/mg cell lysate
same,ELISA protein level MPG,"MPG [6]; U138 cells, UT 1.30",1.50 ng/mg cell lysate
same,ELISA protein level MPG,"MPG [6]; U251 cells, UT 2.70",4.99 ng/mg cell lysate
same,IC50,G55 cells; G55 (high) passage,94.3 µM
same,IC50,G55 cells; G55 (low) passage,567 µM
same,IC50,U138 cells,448 µM
same,IC50,LN18 cells,774 µM
same,IC50,U251 cells,176 µM
same,incidence of severe nausea and vomiting (each),[7],around 4%
same,RT-PCR gene-fold change HIF-1α,"HIF-1α [8]; G55 cells (TMZ-resistant), UT 1.00",1.85 fold
same,RT-PCR gene-fold change HIF-1α,"HIF-1α [8]; LN18 cells (TMZ-resistant), UT 1.03",2.11 fold
same,RT-PCR gene-fold change HIF-1α,"HIF-1α [8]; LN229 cells (TMZ-sensitive), UT 1.00",1.41 fold
same,RT-PCR gene-fold change HIF-1α,HIF-1α [8]; [10],1.72 fold
same,RT-PCR gene-fold change HIF-1α,"HIF-1α [8]; U138 cells (TMZ-resistant), UT 1.00",2.05 fold
same,RT-PCR gene-fold change HIF-1α,HIF-1α [8]; [11],1.48 fold
"O=NN(CCCl)C(=O)NC1CCCCC1 [Lomustine, 1-(2-chloroethyl)-3-cyclohexyl-1-nitrosourea]",crossing of the blood brain barrier,[1],crosses the blood brain barrier
"CC(C)(C)[N+]([O-])=Cc1ccccc1 [PBN, phenyl N-tert-butyl nitrone]",half-life,[9],about 132 minutes
same,crossing of the blood brain barrier,[1],easily penetrate the BBB
same,tumors with reduced tumor growth,C6 gliomas; post-treatment,~50%
same,tumors with reduced growth,C6 gliomas; pre-treatment,> 80%

# Source: patent US11660280B2, “Treatment of drug resistant gliomas” (OKLAHOMA MEDICAL RESEARCH FOUNDATION, priority 2017, dated 2023)
